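Abbreviation: GI50, concentration required for 50% inhibition of growth. TGI: total growth inhibition.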
Experiments:
Experiment in all cases: NCI anticancer screen, dose series, 384-well format
HOP-62 NSCLC = system: HOP-62 NSCLC
DU-145 prostate = system: DU-145 prostate
HL-60(TB) leukemia = system: HL-60(TB) leukemia
HT29 colon = system: HT29 colon
SF-295 CNS = system: SF-295 CNS
NCI-H322M lung = system: NCI-H322M lung
SK-MEL-5 melanoma = system: SK-MEL-5 melanoma
A549 NSCLC = system: A549 NSCLC
UACC-257 melanoma = system: UACC-257 melanoma
PC-3 prostate = system: PC-3 prostate
SW-620 colon = system: SW-620 colon
SN12C renal = system: SN12C renal
UO-31 renal = system: UO-31 renal
KM12 colon = system: KM12 colon
CAKI-1 renal = system: CAKI-1 renal
A498 renal = system: A498 renal
MDA-MB-231 breast = system: MDA-MB-231 breast
OVCAR-4 ovarian = system: OVCAR-4 ovarian
IGROV1 ovarian = system: IGROV1 ovarian
MALME-3M melanoma = system: MALME-3M melanoma
SF-268 CNS = system: SF-268 CNS
SK-MEL-28 melanoma = system: SK-MEL-28 melanoma
U251 glioblastoma = system: U251 glioblastoma
RPMI-8226 leukemia = system: RPMI-8226 leukemia
MDA-MB-468 breast = system: MDA-MB-468 breast
NCI-H522 lung = system: NCI-H522 lung
OVCAR-5 ovarian = system: OVCAR-5 ovarian
T-47D breast = system: T-47D breast
SR leukemia = system: SR leukemia
NCI-H23 lung = system: NCI-H23 lung
NCI-H226 lung = system: NCI-H226 lung
NCI/ADR-RES ovarian = system: NCI/ADR-RES ovarian
SNB-19 CNS = system: SNB-19 CNS
BT-549 breast = system: BT-549 breast
UACC-62 melanoma = system: UACC-62 melanoma
RXF 393 renal = system: RXF 393 renal
K-562 leukemia = system: K-562 leukemia
SK-OV-3 ovarian = system: SK-OV-3 ovarian
LOX IMVI melanoma = system: LOX IMVI melanoma
MCF7 breast = system: MCF7 breast
TK-10 renal = system: TK-10 renal
ACHN renal = system: ACHN renal
SF-539 CNS = system: SF-539 CNS
OVCAR-8 ovarian = system: OVCAR-8 ovarian
HCT-116 colon = system: HCT-116 colon
MOLT-4 leukemia = system: MOLT-4 leukemia
COLO 205 colon = system: COLO 205 colon
NCI-H460 NSCLC = system: NCI-H460 NSCLC
M14 melanoma = system: M14 melanoma
SK-MEL-2 melanoma = system: SK-MEL-2 melanoma
HCC-2998 colon = system: HCC-2998 colon
OVCAR-3 ovarian = system: OVCAR-3 ovarian
CCRF-CEM leukemia = system: CCRF-CEM leukemia
HCT-15 colon = system: HCT-15 colon
HOP-92 NSCLC = system: HOP-92 NSCLC
786-0 renal = system: 786-0 renal
MDA-MB-435 melanoma = system: MDA-MB-435 melanoma

Work on `C#CCN(c1ccc(C(=O)N[C@@H](CCC(=O)N[C@H](CCC(=O)O)C(=O)O)C(=O)O)cc1)C1CCc2cc3nc(CO)[nH]c(=O)c3cc21` (some centres undefined) yielded a GI50 (HOP-62 NSCLC) of 10.5 µM, a TGI (HOP-62 NSCLC) of 45.8 µM and a GI50 (DU-145 prostate) of 3.49 µM. It also gave a TGI (DU-145 prostate) of 20.3 µM, a GI50 (HL-60(TB) leukemia) of 3.02 µM and a TGI (HL-60(TB) leukemia) of 7.56 µM. For the same molecule, the GI50 (HT29 colon) was 5.23 µM, the TGI (HT29 colon) was over 100 µM and the GI50 (SF-295 CNS) was 2.76 µM. The TGI (SF-295 CNS) was 7 µM, the GI50 (NCI-H322M lung) was over 100 µM and the TGI (NCI-H322M lung) was over 100 µM. It also gave a GI50 (SK-MEL-5 melanoma) of 11.6 µM, a TGI (SK-MEL-5 melanoma) of over 100 µM and a GI50 (A549 NSCLC) of 5.94 µM. It also gave a TGI (A549 NSCLC) of over 100 µM, a GI50 (UACC-257 melanoma) of over 100 µM and a TGI (UACC-257 melanoma) of over 100 µM. For the same molecule, the GI50 (PC-3 prostate) was 9.44 µM, the TGI (PC-3 prostate) was over 100 µM and the GI50 (SW-620 colon) was 9 µM. The TGI (SW-620 colon) was over 100 µM, the GI50 (SN12C renal) was 3.75 µM and the TGI (SN12C renal) was 46.9 µM. It also gave a GI50 (UO-31 renal) of 4.46 µM, a TGI (UO-31 renal) of 62.4 µM and a GI50 (KM12 colon) of over 100 µM. It also gave a TGI (KM12 colon) of over 100 µM, a GI50 (CAKI-1 renal) of 8.9 µM and a TGI (CAKI-1 renal) of over 100 µM. For the same molecule, the GI50 (A498 renal) was 5.06 µM, the TGI (A498 renal) was over 100 µM and the GI50 (MDA-MB-231 breast) was over 100 µM. The TGI (MDA-MB-231 breast) was over 100 µM, the GI50 (OVCAR-4 ovarian) was over 100 µM and the TGI (OVCAR-4 ovarian) was over 100 µM. For the same molecule, the GI50 (IGROV1 ovarian) was 60.3 µM, the TGI (IGROV1 ovarian) was over 100 µM and the GI50 (MALME-3M melanoma) was over 100 µM. For the same molecule, the TGI (MALME-3M melanoma) was over 100 µM, the GI50 (SF-268 CNS) was 4.09 µM and the TGI (SF-268 CNS) was 27.5 µM. For the same molecule, the GI50 (SK-MEL-28 melanoma) was 5.13 µM, the TGI (SK-MEL-28 melanoma) was over 100 µM and the GI50 (U251 glioblastoma) was 68.9 µM. The TGI (U251 glioblastoma) was over 100 µM, the GI50 (RPMI-8226 leukemia) was 2 µM and the TGI (RPMI-8226 leukemia) was 4.03 µM. It also gave a GI50 (MDA-MB-468 breast) of 3.72 µM, a TGI (MDA-MB-468 breast) of 8.76 µM and a GI50 (NCI-H522 lung) of 3.04 µM. For the same molecule, the TGI (NCI-H522 lung) was 7.83 µM, the GI50 (OVCAR-5 ovarian) was over 100 µM and the TGI (OVCAR-5 ovarian) was over 100 µM. It also gave a GI50 (T-47D breast) of over 100 µM, a TGI (T-47D breast) of over 100 µM and a GI50 (SR leukemia) of 1.9 µM. It also gave a TGI (SR leukemia) of 3.38 µM, a GI50 (NCI-H23 lung) of 21.9 µM and a TGI (NCI-H23 lung) of 57.3 µM. It also gave a GI50 (NCI-H226 lung) of 35.4 µM, a TGI (NCI-H226 lung) of over 100 µM and a GI50 (NCI/ADR-RES ovarian) of 3.18 µM. It also gave a TGI (NCI/ADR-RES ovarian) of 8.45 µM, a GI50 (SNB-19 CNS) of 5.96 µM and a TGI (SNB-19 CNS) of over 100 µM. For the same molecule, the GI50 (BT-549 breast) was 6.68 µM, the TGI (BT-549 breast) was over 100 µM and the GI50 (UACC-62 melanoma) was 64.6 µM. For the same molecule, the TGI (UACC-62 melanoma) was over 100 µM, the GI50 (RXF 393 renal) was 8.09 µM and the TGI (RXF 393 renal) was 71.9 µM. The GI50 (K-562 leukemia) was 7.67 µM, the TGI (K-562 leukemia) was over 100 µM and the GI50 (SK-OV-3 ovarian) was 43.2 µM. The TGI (SK-OV-3 ovarian) was over 100 µM, the GI50 (LOX IMVI melanoma) was 5.03 µM and the TGI (LOX IMVI melanoma) was over 100 µM. For the same molecule, the GI50 (MCF7 breast) was 0.8 µM, the TGI (MCF7 breast) was over 100 µM and the GI50 (TK-10 renal) was 6.69 µM. For the same molecule, the TGI (TK-10 renal) was over 100 µM, the GI50 (ACHN renal) was 4.25 µM and the TGI (ACHN renal) was over 100 µM. The GI50 (SF-539 CNS) was 4.67 µM, the TGI (SF-539 CNS) was over 100 µM and the GI50 (OVCAR-8 ovarian) was 4.54 µM. For the same molecule, the TGI (OVCAR-8 ovarian) was over 100 µM, the GI50 (HCT-116 colon) was 4.57 µM and the TGI (HCT-116 colon) was over 100 µM. It also gave a GI50 (MOLT-4 leukemia) of 2.67 µM, a TGI (MOLT-4 leukemia) of 5.52 µM and a GI50 (COLO 205 colon) of 7.84 µM. For the same molecule, the TGI (COLO 205 colon) was over 100 µM, the GI50 (NCI-H460 NSCLC) was 5.02 µM and the TGI (NCI-H460 NSCLC) was over 100 µM. The GI50 (M14 melanoma) was 8.69 µM, the TGI (M14 melanoma) was over 100 µM and the GI50 (SK-MEL-2 melanoma) was 99.9 µM. It also gave a TGI (SK-MEL-2 melanoma) of over 100 µM, a GI50 (HCC-2998 colon) of 0.386 µM and a TGI (HCC-2998 colon) of 3.96 µM. The GI50 (OVCAR-3 ovarian) was 9.01 µM, the TGI (OVCAR-3 ovarian) was over 100 µM and the GI50 (CCRF-CEM leukemia) was 1.97 µM. For the same molecule, the TGI (CCRF-CEM leukemia) was 4.68 µM, the GI50 (HCT-15 colon) was 5.2 µM and the TGI (HCT-15 colon) was over 100 µM. For the same molecule, the GI50 (HOP-92 NSCLC) was 13.3 µM, the TGI (HOP-92 NSCLC) was over 100 µM and the GI50 ([…]-0 renal) was 3.69 µM. The TGI (786-0 renal) was 31.1 µM, the GI50 (MDA-MB-435 melanoma) was over 100 µM and the TGI (MDA-MB-435 melanoma) was over 100 µM.
